The values that follow come from article PMC12631873 (Advanced Science, 2025).

In data set [1] the test system is human umbilical vein endothelial cells (HUVECs). Description: CCK-8 cell viability assay on HUVECs. Format: cell-based. The following applies: 0-40 µM, 24 h, n = 6 wells. As to the method: The cultures were maintained under standard conditions of 37 °C and 5% CO2. Chondrocytes collected from the articular cartilage of Sprague‐Dawley (SD) rats (purchased from Jennio Biotech, JNO‐720) were cultured in DMEM medium (Precell, PM150210). Human venous endothelial cells (HUVECs, purchased from iCell, iCell‐h110) were cultured in HUVEC medium (iCell, iCell‐h110‐001b). Both cells were seeded in 96‐well plates at a density of 5000 cells per well. The medium was supplemented with 10% fetal bovine serum (FBS, Precell, 164210) and penicillin‐streptomycin (1:100 diluted from a 100× stock solution, ThermoFisher, 15140122) to support cell growth and prevent bacterial contamination. When cell confluency reached 80%, peptidomimetic probes at increasing concentrations ranging from 0 to 40 µM were added to the cell culture medium (n = 4 wells for chondrocytes, n = 6 wells for HUVECs; blank control group: 0 µM; cells cultured without probe). Following 24 h (or 72 h) of incubation, the medium was removed, and the cells were rinsed three times with 1× PBS buffer. Cell viability was assessed using the CCK‐8 assay kit (GLPBIO, GK10001−5) according to the manufacturer's instructions. After further incubation for 4 h, the optical density (OD) of the CCK‐8 solution was measured at 450 nm using a microplate reader (PerkinElmer, EnVision). For live‐dead cell staining, rat chondrocytes (5000 cells per well seeded, n = 4 wells per group) were cultured for 24 h in medium (without fetal bovine serum) containing 40 µM of each peptidomimetic probe in a 96‐well plate. […] The fluorescence images were obtained using an EVOS M7000 imaging system (Light cubes: GFP and RFP, Objective: 10×). A microscopic image was taken from the live (Calcein AM) staining of each well, and the total fluorescence signals were quantified for each image. The mean fluorescence level of each probe's group was normalized to the blank control group to estimate the relative cell viability. […] The fluorescence intensity of each well was measured by the microplate reader (Ex / Em: 620 /662 nm). […]
In general terms: Formazan colour is commonly taken as a measure of viable cells.

Data set [2] in a line: Serum stability test (HPLC). Format: in vitro ADME, mouse. The following applies: 37 °C, HPLC UV 646 nm, n = 3; for degradation in serum (in words): 25% v/v mouse serum, 24 h and even after 48 h. As to the method:
Cy5‐labeled peptidomimetic probes (10 nmol) were incubated in 25% v/v mouse serum (Biosharp, BL1053A diluted in 1× PBS) at 37 °C. Aliquots (200 µL) were taken periodically at 0 (deadtime: ≈10 min), 2, 24, and 48 h, and added to 400 µL of 3.75% trichloroacetic acid in acetonitrile at 4 °C. Then, all samples were centrifuged to remove the precipitated serum proteins at 13800 g for 10 min at 4 °C. The supernatant (150 µL) was taken to mix with 550 µL of water (with 0.1% TFA) to centrifuge again at 2630 g for 5 min at 4 °C. Five microliter of the supernatant was mixed with 200 µL of water containing 0.1% TFA as the final samples for HPLC analysis at room temperature monitored by absorbance at 646 nm with the integral area of the intact fraction recorded. The peak area for the 10 min time point was designated as 100% intact, and each peak area at successive time points was normalized to the 10 min peak to calculate the percent compound remaining. All the experiments were repeated three times.

Square brackets hold non-standard residues; d marks the D form. Peptide text beside a SMILES is read from it. * marks the point of attachment. X1 = CN1/C(=C/C=C/C=C/C2=[N+](CCCCCC(=O)*)c3ccc(S(=O)(=O)[O-])cc3C2(C)C)C(C)(C)c2cc(S(=O)(=O)O)ccc21; Hyp = O=C(O)[C@@H]1C[C@@H](O)CN1; Nlys = NCCCCNCC(=O)O; Ahx = NCCCCCC(=O)O

Consider `CN1/C(=C/C=C/C=C/C2=[N+](CCCCCC(=O)NCCCCCC(=O)N(CCCCN)CC(=O)N3C[C@H](O)C[C@H]3C(=O)N(CCCCN)CC(=O)N3C[C@H](O)C[C@H]3C(=O)N(CCCCN)CC(=O)N3C[C@H](O)C[C@H]3C(=O)N(CCCCN)CC(=O)N3C[C@H](O)C[C@H]3C(=O)N(CCCCN)CC(=O)N3C[C@H](O)C[C@H]3C(=O)N(CCCCN)CC(=O)N3C[C@H](O)C[C@H]3C(=O)N(CCCCN)CC(=O)N3C[C@H](O)C[C@H]3C(N)=O)c3ccc(S(=O)(=O)[O-])cc3C2(C)C)C(C)(C)c2cc(S(=O)(=O)O)ccc21` [Cy5‐(NlysO)7] ({X1-Ahx}-[Nlys][Hyp][Nlys][Hyp][Nlys][Hyp][Nlys][Hyp][Nlys][Hyp][Nlys][Hyp][Nlys][Hyp]-NH2), for which the “cytotoxicity to HUVECs (CCK-8), in words” value was “did not exhibit cytotoxicity” in data set [1] and “no apparent cytotoxicity at the tested concentrations” in data set [1] (listed as Cy5-(NlysO)7). Also, in data set [2], the “degradation in serum (in words)” value was “hardly degraded”.

In the case of `CN1/C(=C/C=C/C=C/C2=[N+](CCCCCC(=O)NCCCCCC(=O)N[C@@H](CCCNC(=N)N)C(=O)N[C@@H](CCCNC(=N)N)C(=O)N[C@@H](CCCNC(=N)N)C(=O)N[C@@H](CCCNC(=N)N)C(=O)N[C@@H](CCCNC(=N)N)C(=O)N[C@@H](CCCNC(=N)N)C(=O)N[C@@H](CCCNC(=N)N)C(=O)N[C@@H](CCCNC(=N)N)C(N)=O)c3ccc(S(=O)(=O)[O-])cc3C2(C)C)C(C)(C)c2cc(S(=O)(=O)O)ccc21` [Cy5‐R8, reference compound], the “cytotoxicity to HUVECs (CCK-8), in words” value in data set [1] is “significant cytotoxicity”. The “intact compound remaining after 2 h serum incubation” value in data set [2] (25% v/v mouse serum in 1× PBS, 10 nmol probe, peak area normalized to 10 min) is listed as “no intact R8 peptide remained”. Further, the “degradation in serum (in words)” value in data set [2] is reported as “extremely unstable”.
